Test results published in patent US20230219886A1, “NOVEL SELENO-NSAID ANALOGS AND USES THEREOF” (THE PENN STATE RESEARCH FOUNDATION, priority 2020, published 2023).
Read-outs that look alike come from different tables or passages of the source.

Legend:
[1] = test system: HCT-116 CRC cells; assay: MTT cell viability assay, HCT-116; assay type: cell-based, human; conditions: Homo sapiens, read-out: IC50
Method: (§1) Cell Culture Conditions. The cell lines were obtained from the American Type Culture Collection (ATCC). PANC-1 and Caco-2 cell lines were maintained in DMEM medium (Gibco); HT-29, HCT-116 and RKO cells were maintained in McCoy's 5A medium (Gibco); and DU-145 and H1299 cells were maintained in RPMI 1640 medium (Gibco), supplemented with 10% fetal bovine serum (FBS; Gibco) and 1% antibiotics (10.00 units/mL penicillin and 10.00 mg/mL streptomycin; Gibco). Cells were preserved in tissue culture flasks at 37° C. and 5% CO2. Culture medium was replaced every three days.
(§2) Cell Viability Assay. The effect of each compound on cell viability was tested using the MTT assay (81). Briefly, 9000 cells/well were grown in 96-well plates for 12 h. Then these cells were incubated with either DMSO (control) or nine different concentration between 0.01-50 μM of the test compounds for 24, 48, and 72 h. Three hours before the termination point, 20 μL of MTT were added to measure cellular viability. The resultant formazan crystals were dissolved in 50 μL of DMSO, and absorbance was measured at 570 nm and 630 nm wavelengths. IC50, GI50, TGI and LC50 values were calculated using OriginPro 8.5.1.

[2] = test system: PANC-1 (pancreatic carcinoma); assay: MTT cell viability assay, Panc-1; conditions: Homo sapiens, PANC-1, 48 h, read-out: cell viability
Method: as §1, §2
(§3) Evaluation of the antiproliferative activities of the novel molecules. […] These four cell lines were treated with each compound at three concentrations (5, 25 and 50 μM) for 48 h.

[3] = test system: HT-29 (CRC); assay: MTT cell viability assay, HT-29; conditions: for GI50 / IC50 / viability at 5 µM / viability at 25 µM / viability at 50 µM: Homo sapiens; for viability at 5 µM / viability at 25 µM / viability at 50 µM: read-out: cell viability
Method: as §1, §2, §3

[4] = test system: CACO-2 CRC cells; assay: cells; conditions: Homo sapiens
Method: as §1, §2

[5] = test system: RKO CRC cells; assay: cells; conditions: Homo sapiens
Method: as §1, §2

[6] = test system: DU-145 (prostate carcinoma); assay: MTT cell viability assay, DU-145; conditions: Homo sapiens, DU-145, 48 h, read-out: cell viability
Method: as §1, §2, §3

[7] = test system: H1299 (lung carcinoma); assay: MTT cell viability assay, H1299; conditions: Homo sapiens, NCI-H1299, 48 h, read-out: cell viability
Method: as §1, §2, §3

With `COc1ccc2c(c1)c(CC(=O)O)c(C)n2C(=O)c1ccc(Cl)cc1` [Inn, indomethacin, reference compound] the IC50 ([1]; HCT-116, 24 h) was over 50 µM, the IC50 ([1]; HCT-116, 48 h) was over 50 µM and the IC50 ([1]; HCT-116, 72 h) was over 50 µM. It also gave a viability at 5 µM [2] of 94.1 ± 8.3%, a viability at 25 µM [2] of 85.9 ± 10.5% and a viability at 50 µM [2] of 83.2 ± 6.3%. It also gave a TGI ([3]; HT-29, 24 h) of over 50 µM, a TGI ([3]; HT-29, 48 h) of over 50 µM and a TGI ([3]; HT-29, 72 h) of over 50 µM. The GI50 ([3]; HT-29, 24 h) was over 50 µM, the IC50 ([3]; HT-29, 24 h) was over 50 µM and the GI50 ([3]; HT-29, 48 h) was over 50 µM. For the same compound, the IC50 ([3]; HT-29, 48 h) was over 50 µM, the viability at 5 µM ([3]; HT-29, 48 h) was 100 ± 8.4% and the viability at 25 µM ([3]; HT-29, 48 h) was 99.8 ± 14.2%. For the same compound, the viability at 50 µM ([3]; HT-29, 48 h) was 98.3 ± 13.4%, the GI50 ([3]; HT-29, 72 h) was over 50 µM and the IC50 ([3]; HT-29, 72 h) was over 50 µM. For the same compound, the IC50 ([4]; Caco-2, 24 h) was over 50 µM, the IC50 ([4]; Caco-2, 48 h) was over 50 µM and the IC50 ([4]; Caco-2, 72 h) was over 50 µM. It also gave an IC50 ([5]; 24 h) of over 50 µM, an IC50 ([5]; 48 h) of over 50 µM and an IC50 ([5]; 72 h) of over 50 µM. The viability at 5 µM [6] was 89.6 ± 12.3%, the viability at 25 µM [6] was 97.6 ± 21% and the viability at 50 µM [6] was 96.2 ± 18.5%. The viability at 5 µM [7] was 76 ± 23.7%, the viability at 25 µM [7] was 70.4 ± 19.8% and the viability at 50 µM [7] was 66.2 ± 14%.
`CC1=C(CC(=O)O)c2cc(F)ccc2/C1=C\c1ccc([S+](C)[O-])cc1` (stereo not drawn) [Sulin, sulindac, reference compound] gave an IC50 ([1]; HCT-116, 24 h) of over 50 µM, an IC50 ([1]; HCT-116, 48 h) of over 50 µM and an IC50 ([1]; HCT-116, 72 h) of over 50 µM. It also gave a viability at 5 µM [2] of 88 ± 22.5%, a viability at 25 µM [2] of 90.6 ± 28.9% and a viability at 50 µM [2] of 84.5 ± 32.7%. For the same compound, the TGI ([3]; HT-29, 24 h) was over 50 µM, the TGI ([3]; HT-29, 48 h) was over 50 µM and the TGI ([3]; HT-29, 72 h) was over 50 µM. It also gave a GI50 ([3]; HT-29, 24 h) of over 50 µM, an IC50 ([3]; HT-29, 24 h) of over 50 µM and a GI50 ([3]; HT-29, 48 h) of over 50 µM. For the same compound, the IC50 ([3]; HT-29, 48 h) was over 50 µM, the viability at 5 µM ([3]; HT-29, 48 h) was 99.1 ± 2.4% and the viability at 25 µM ([3]; HT-29, 48 h) was 97.3 ± 2.1%. The viability at 50 µM ([3]; HT-29, 48 h) was 98.6 ± 3.1%, the GI50 ([3]; HT-29, 72 h) was over 50 µM and the IC50 ([3]; HT-29, 72 h) was over 50 µM. It also gave an IC50 ([4]; Caco-2, 24 h) of over 50 µM, an IC50 ([4]; Caco-2, 48 h) of over 50 µM and an IC50 ([4]; Caco-2, 72 h) of over 50 µM. It also gave an IC50 ([5]; 24 h) of over 50 µM, an IC50 ([5]; 48 h) of over 50 µM and an IC50 ([5]; 72 h) of over 50 µM. It also gave a viability at 5 µM [6] of 82.2 ± 1.9%, a viability at 25 µM [6] of 83.2 ± 7.2% and a viability at 50 µM [6] of 85.5 ± 3.7%. The viability at 5 µM [7] was 87.5 ± 2.5%, the viability at 25 µM [7] was 72.5 ± 2.7% and the viability at 50 µM [7] was 84.9 ± 12.1%.
